Results on 22 compounds are retold here after US11814367B2, “Inhibitors of glycogen synthase 1 (GYS1) and methods of use thereof” (Maze Therapeutics, Inc., priority 2021, dated 2023).

Chain of hGYS1 enzyme (recombinant hGYS1/GN1 protein) (P13807 whole entry): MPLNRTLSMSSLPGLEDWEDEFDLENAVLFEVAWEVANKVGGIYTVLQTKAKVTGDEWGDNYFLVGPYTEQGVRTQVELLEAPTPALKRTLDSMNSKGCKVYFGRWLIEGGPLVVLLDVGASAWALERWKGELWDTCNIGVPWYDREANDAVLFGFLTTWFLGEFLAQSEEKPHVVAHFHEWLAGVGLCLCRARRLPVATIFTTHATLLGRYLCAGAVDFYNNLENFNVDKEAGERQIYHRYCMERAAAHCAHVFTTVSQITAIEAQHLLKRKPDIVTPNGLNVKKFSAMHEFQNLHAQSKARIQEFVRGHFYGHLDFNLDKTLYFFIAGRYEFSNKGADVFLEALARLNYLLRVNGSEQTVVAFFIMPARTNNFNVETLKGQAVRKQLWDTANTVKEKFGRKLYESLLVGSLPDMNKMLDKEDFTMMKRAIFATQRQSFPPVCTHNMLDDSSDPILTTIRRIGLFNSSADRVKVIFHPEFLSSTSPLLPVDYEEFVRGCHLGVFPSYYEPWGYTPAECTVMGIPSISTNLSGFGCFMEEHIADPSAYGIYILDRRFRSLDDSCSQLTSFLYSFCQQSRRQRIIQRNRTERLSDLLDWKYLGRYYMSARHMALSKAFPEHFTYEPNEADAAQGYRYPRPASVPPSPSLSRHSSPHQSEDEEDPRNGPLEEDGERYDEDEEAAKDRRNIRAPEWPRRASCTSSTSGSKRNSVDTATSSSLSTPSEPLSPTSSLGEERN
Chain of hGYS1 enzyme (recombinant hGYS1/GN1 protein) (P46976 whole entry partner): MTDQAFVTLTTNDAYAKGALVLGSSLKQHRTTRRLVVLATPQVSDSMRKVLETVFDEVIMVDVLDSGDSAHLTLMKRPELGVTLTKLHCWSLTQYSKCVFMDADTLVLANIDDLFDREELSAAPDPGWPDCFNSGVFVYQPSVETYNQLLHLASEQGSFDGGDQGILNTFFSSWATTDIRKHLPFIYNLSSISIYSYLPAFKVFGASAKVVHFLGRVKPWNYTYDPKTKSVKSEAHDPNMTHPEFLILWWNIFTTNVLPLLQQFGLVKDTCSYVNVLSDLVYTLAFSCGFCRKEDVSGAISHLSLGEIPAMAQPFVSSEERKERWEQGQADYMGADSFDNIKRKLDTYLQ

This experiment deals with hGYS1 enzyme (recombinant hGYS1/GN1 protein) (Homo sapiens (Human), UniProt P13807). Description: GYS1 coupled enzyme assay (PK/LDH). The experiment is classed as biochemical. The note with it: hGYS1/GN1 50 nM, UDP-Glucose 0.8 mM, G6P 1 mM; geometric mean of at least 2 runs. The text has this:
The GYS1 coupled enzyme assay is a kinetic biochemical assay that indirectly quantifies the rate of glycogen synthesis by coupling the conversion of GYS1 substrate UDP-glucose into UDP with downstream enzymatic reactions. UDP is released from UDP-glucose as glucose monomers are linked into the growing glycogen strand by GYS1. The coupled assay then proceeds with pyruvate kinase utilizing UDP and phospho(enol)pyruvate (PEP) to form pyruvate. Lactate dehydrogenase then converts pyruvate and NADH into lactate and NAD+. Oxidation of NADH to NAD+ can be measured continuously with a plate reader by quantifying the decrease in NADH absorbance at 340 nm over time.
Compounds that inhibit the hGYS1 enzyme and, subsequently, the downstream conversion of NADH to NAD+, were tested using assay ready plates (black, clear bottom 384 well plates) in a final DMSO reaction volume of 2.5% DMSO. The Assay Buffer contained 50 mM Tris pH 7.5, 2 mM MgCl2, and 100 mM KCl. Fresh stocks of BSA at a final concentration of 0.02% and TCEP at 1 mM were added before splitting buffer into hGYS1 buffer and substrate buffer. To the hGYS1 buffer, rabbit liver glycogen was added at a final concentration of 0.2% glycogen. Glucose-6-Phosphate was added at 1 mM, recombinant hGYS1/GN1 protein was added at 50 nM to the substrate buffer, phosphoenolpyruvate (PEP) was added at 2 mM, UDP-Glucose was added at 0.8 mM, NADH) was added at 0.6 mM, and Pyruvate Kinase/Lactate Dehydrogenase was added at 20 units/mL. The reaction was initiated by mixing hGYS1 buffer and substrate buffer at a 1:1 ratio. Both buffers were plated using a liquid dispensing device with hGYS1 buffer plated first followed by the substrate buffer. Plates were spun briefly to eliminate air bubbles and are immediately read in continuous mode at an absorbance of 340 nm, for 10 time points in one-minute increments, for a total of 10 minutes. The slope from these 10 time points was normalized to the positive and negative control wells. The duplicate % inhibition values are then averaged and fit to a Hill equation for dose response according to the Levenberg-Marquardt algorithm with the Hill equation maximum set to 100 and the minimum set to 0.
Unless otherwise specified, IC50 values are reported as the geometric mean of at least 2 assay runs on separate days. Each run represents the average of a technical replicate, where each compound was assayed twice in the same plate. […] A superscript “#” symbol in Table 2 indicates results from a single assay run.
The IC50 is the concentration that inhibits the measured activity by half. On to `CC(C)c1ccc([C@@H](NC(=O)[C@@H]2C[C@@H](F)CN2C(=O)C(C)(C)c2ccccn2)c2ccccc2)cc1` [Compound 92, (2S,4R)-4-fluoro-1-[2-methyl-2-(pyridin-2-yl)propanoyl]-N-[(S)-phenyl[4-(propan-2-yl)phenyl]methyl]pyrrolidine-2-carboxamide], for which the half-maximal inhibitory concentration (IC50) was 0.439 µM. For the compound `CC(C)c1ccc([C@@H](NC(=O)[C@@H]2C[C@@H](F)CN2C(=O)c2ccc3c(c2)NC(=O)CC3)c2ccccc2)cc1` [Compound 97, (2S,4R)-4-fluoro-1-(2-oxo-1,2,3,4-tetrahydroquinoline-7-carbonyl)-N-[(S)-phenyl[4-(propan-2-yl)phenyl]methyl]pyrrolidine-2-carboxamide], the IC50 turned out to be 0.712 µM. With `CC(C)CNC(=O)C(=O)N1C[C@H](F)C[C@H]1C(=O)N[C@@H](c1ccccc1)c1ccc(C(C)C)cc1` [Compound 111, (2S,4R)-4-fluoro-1-{[(2-methylpropyl)carbamoyl]carbonyl}-N-[(S)-phenyl[4-(propan-2-yl)phenyl]methyl]pyrrolidine-2-carboxamide] the figure was 1.08 µM; with `CC(=O)N1CC(Oc2ccc(C(=O)N3C[C@H](F)C[C@H]3C(=O)N[C@@H](c3ccccc3)c3ccc(C(C)C)cc3)cc2)C1` [Compound 112, (2S,4R)-1-{4-[(1-acetylazetidin-3-yl)oxy]benzoyl}-4-fluoro-N-[(S)-phenyl[4-(propan-2-yl)phenyl]methyl]pyrrolidine-2-carboxamide], 0.854 µM. In the case of `CC(C)c1ccc([C@@H](NC(=O)[C@@H]2C[C@@H](F)CN2C(=O)C(=O)C2CC2)c2ccccc2)cc1` [Compound 113, (2S,4R)-1-(2-cyclopropyl-2-oxoacetyl)-4-fluoro-N-[(S)-phenyl[4-(propan-2-yl)phenyl]methyl]pyrrolidine-2-carboxamide] it was 1.04 µM. In the case of `CC(C)c1ccc([C@@H](NC(=O)[C@@H]2C[C@@H](F)CN2C(=O)C(=O)N(C)C)c2ccccc2)cc1` [Compound 115, (2S,4R)-1-[(dimethylcarbamoyl)carbonyl]-4-fluoro-N-[(S)-phenyl[4-(propan-2-yl)phenyl]methyl]pyrrolidine-2-carboxamide] it was 0.493 µM; in that of `CC(=O)N1CC(CC(=O)N2C[C@H](F)C[C@H]2C(=O)N[C@@H](c2ccccc2)c2ccc(C(C)C)cc2)Oc2ccccc21` (stereo partly drawn) [Compound 116, (2S,4R)-1-[2-(4-acetyl-3,5-dihydro-2H-1,4-benzoxazin-2-yl)acetyl]-4-fluoro-N-[(S)-phenyl[4-(propan-2-yl)phenyl]methyl]pyrrolidine-2-carboxamide], 0.121 µM. As to `CC(Cn1cncn1)C(=O)N1C[C@H](F)C[C@H]1C(=O)N[C@@H](c1ccccc1)c1ccc(C(C)C)cc1` (stereo partly drawn) [Compound 120, (2S,4R)-4-fluoro-1-[2-methyl-3-(1H-1,2,4-triazol-1-yl)propanoyl]-N-[(S)-phenyl[4-(propan-2-yl)phenyl]methyl]pyrrolidine-2-carboxamide], the IC50 turned out to be 0.343 µM.

For `CC(C)c1ccc([C@@H](NC(=O)[C@@H]2C[C@@H](F)CN2C(=O)c2ccc3c(c2)NC(=O)CO3)c2ccccc2)cc1` [Compound 122, (2S,4R)-4-fluoro-1-(3-oxo-3,4-dihydro-2H-1,4-benzoxazine-6-carbonyl)-N-[(S)-phenyl[4-(propan-2-yl)phenyl]methyl]pyrrolidine-2-carboxamide], the IC50 was 0.989 µM. As to `CC(C)c1ccc([C@@H](NC(=O)[C@@H]2C[C@@H](F)CN2C(=O)c2cccc(-n3cncn3)c2)c2ccccc2)cc1` [Compound 123, (2S,4R)-4-fluoro-N-[(S)-phenyl[4-(propan-2-yl)phenyl]methyl]-1-[3-(1H-1,2,4-triazol-1-yl)benzoyl]pyrrolidine-2-carboxamide], the IC50 was 1 µM. In the case of `CC(Oc1cccnc1)C(=O)N1C[C@H](F)C[C@H]1C(=O)N[C@@H](c1ccccc1)c1ccc(C(C)C)cc1` (stereo partly drawn) [Compound 124, (2S,4R)-4-fluoro-N-[(S)-phenyl[4-(propan-2-yl)phenyl]methyl]-1-[2-(pyridin-3-yloxy)propanoyl]pyrrolidine-2-carboxamide] it was 0.078 µM; in that of `Cc1cnn(C(C)C(=O)N2C[C@H](F)C[C@H]2C(=O)N[C@@H](c2ccccc2)c2ccc(C(C)C)cc2)c1` (stereo partly drawn) [Compound 127, (2S,4R)-4-fluoro-1-[2-(4-methyl-1H-pyrazol-1-yl)propanoyl]-N-[(S)-phenyl[4-(propan-2-yl)phenyl]methyl]pyrrolidine-2-carboxamide], 0.318 µM. Regarding `CC(C)c1ccc([C@@H](NC(=O)[C@@H]2C[C@@H](F)CN2C(=O)c2cc3n(n2)CCCNC3=O)c2ccccc2)cc1` [Compound 131, (2S,4R)-4-fluoro-1-{4-oxo-4H,5H,6H,7H,8H-pyrazolo[1,5-a][1,4]diazepine-2-carbonyl}-N-[(S)-phenyl[4-(propan-2-yl)phenyl]methyl]pyrrolidine-2-carboxamide], the IC50 was 0.563 µM.

For the compound `CC(Cc1ccccn1)C(=O)N1C[C@H](F)C[C@H]1C(=O)N[C@@H](c1ccccc1)c1ccc(C(C)C)cc1` (stereo partly drawn) [Compound 132, (2S,4R)-4-fluoro-1-[2-methyl-3-(pyridin-2-yl)propanoyl]-N-[(S)-phenyl[4-(propan-2-yl)phenyl]methyl]pyrrolidine-2-carboxamide], the IC50 was found to be 0.099 µM. With `CC(C)c1ccc([C@@H](NC(=O)[C@@H]2C[C@@H](F)CN2C(=O)C2CCC3CCC(=O)N3C2)c2ccccc2)cc1` (stereo partly drawn) [Compound 139, (2S,4R)-4-fluoro-1-(3-oxo-octahydroindolizine-6-carbonyl)-N-[(S)-phenyl[4-(propan-2-yl)phenyl]methyl]pyrrolidine-2-carboxamide] the figure was 0.357 µM; with `CC(=O)N1CC(F)(C(=O)N2C[C@H](F)C[C@H]2C(=O)N[C@@H](c2ccccc2)c2ccc(C(C)C)cc2)C1` [Compound 143, (2S,4R)-1-(1-acetyl-3-fluoroazetidine-3-carbonyl)-4-fluoro-N-[(S)-phenyl[4-(propan-2-yl)phenyl]methyl]pyrrolidine-2-carboxamide], 0.323 µM. With `CC(=O)N1C[C@H]2C[C@@]2(C(=O)N2C[C@H](F)C[C@H]2C(=O)N[C@@H](c2ccccc2)c2ccc(C(C)C)cc2)C1` [Compound 148, (2S,4R)-1-[(1S,5S)-3-acetyl-3-azabicyclo[3.1.0]hexane-1-carbonyl]-4-fluoro-N-[(S)-phenyl[4-(propan-2-yl)phenyl]methyl]pyrrolidine-2-carboxamide] the figure was 0.344 µM; with `CC(=O)N1C[C@]2(C(=O)N3C[C@H](F)C[C@H]3C(=O)N[C@@H](c3ccccc3)c3ccc(C(C)C)cc3)CC1CO2` [Compound 150, (2S,4R)-1-[(1S)-5-acetyl-2-oxa-5-azabicyclo[2.2.1]heptane-1-carbonyl]-4-fluoro-N-[(S)-phenyl[4-(propan-2-yl)phenyl]methyl]pyrrolidine-2-carboxamide], 0.554 µM; with `CC(=O)N1CCC(C)(C(=O)N2C[C@H](F)C[C@H]2C(=O)N[C@@H](c2ccccc2)c2ccc(C(C)C)cc2)C1` (stereo partly drawn) [Compound 152, (2S,4R)-1-(1-acetyl-3-methylpyrrolidine-3-carbonyl)-4-fluoro-N-[(S)-phenyl[4-(propan-2-yl)phenyl]methyl]pyrrolidine-2-carboxamide], 0.132 µM. In the case of `CC(=O)N1CCC[C@H](C(=O)N2C[C@H](F)C[C@H]2C(=O)N[C@@H](c2ccccc2)c2ccc(C(C)C)cc2)C1` [Compound 153, (2S,4R)-1-[(3S)-1-acetylpiperidine-3-carbonyl]-4-fluoro-N-[(S)-phenyl[4-(propan-2-yl)phenyl]methyl]pyrrolidine-2-carboxamide] it was 0.412 µM. On to `CC(=O)N1CCC2(CC2C(=O)N2C[C@H](F)C[C@H]2C(=O)N[C@@H](c2ccccc2)c2ccc(C(C)C)cc2)C1` (stereo partly drawn) [Compound 156, (2S,4R)-1-{5-acetyl-5-azaspiro[2.4]heptane-1-carbonyl}-4-fluoro-N-[(S)-phenyl[4-(propan-2-yl)phenyl]methyl]pyrrolidine-2-carboxamide], for which the IC50 is 0.304 µM. With `CC(=O)N1C2CCC1[C@@H](C(=O)N1C[C@H](F)C[C@H]1C(=O)N[C@@H](c1ccccc1)c1ccc(C(C)C)cc1)C2` (stereo partly drawn) [Compound 157, (2S,4R)-1-[(2S)-7-acetyl-7-azabicyclo[2.2.1]heptane-2-carbonyl]-4-fluoro-N-[(S)-phenyl[4-(propan-2-yl)phenyl]methyl]pyrrolidine-2-carboxamide] the figure was 0.392 µM.
